Consider one compound from paper PMC10095345, “The Role of Tyr-His-Trp Triad and Water Molecule Near the N1-Atom of 2-Hydroperoxycoelenterazine in Bioluminescence of Hydromedusan Photoproteins: Structural and Mutagenesis Study” (International Journal of Molecular Sciences, 2023).

Structures are written as SMILES.

The target of one assay is T1, obelin (OL_wt) (Obelia longissima, UniProt Q27709).
T1 construct: full-length apo-obelin from pET19-OL8 in E. coli BL21-Gold (DE3) Codon Plus (RIPL), charged with coelenterazine; 195 residues
As to the kind of experiment: Ca2+-triggered bioluminescence of charged photoprotein, luminometer. In kind it is biochemical. The settings on record: 2 mM CaCl2, 50 mM Tris-HCl pH 8.5, 23 C; bound as 2-hydroperoxycoelenterazine.

For the next assay, the target named is T2, aequorin (AV_wt) (Aequorea victoria, UniProt P07164).
T2 construct: apo-aequorin with N-terminus truncated by six residues, from pET22-A7 in E. coli BL21-Gold (DE3) Codon Plus (RIPL), charged with coelenterazine
T2 sequence (P07164 7-196 limits assumed): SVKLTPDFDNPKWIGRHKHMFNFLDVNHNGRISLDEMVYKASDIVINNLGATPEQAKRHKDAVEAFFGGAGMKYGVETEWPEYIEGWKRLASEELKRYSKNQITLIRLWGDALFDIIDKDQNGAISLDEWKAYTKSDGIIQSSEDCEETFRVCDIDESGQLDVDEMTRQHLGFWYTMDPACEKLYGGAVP
The assay is described as above. It is filed as biochemical. The settings on record: 2 mM CaCl2, 50 mM Tris-HCl pH 8.5, 23 C; bound as 2-hydroperoxycoelenterazine.

T1 sequence (Q27709 whole entry): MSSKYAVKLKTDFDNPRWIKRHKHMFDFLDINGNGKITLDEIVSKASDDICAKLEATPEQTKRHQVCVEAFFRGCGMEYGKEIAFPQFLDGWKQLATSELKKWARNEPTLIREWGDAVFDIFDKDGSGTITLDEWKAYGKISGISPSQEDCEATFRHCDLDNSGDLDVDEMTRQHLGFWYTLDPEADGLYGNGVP

In the case of `Oc1ccc(Cc2nc3c(Cc4ccccc4)nc(-c4ccc(O)cc4)cn3c2O)cc1` [coelenterazine], the “Ca2+-triggered bioluminescence of charged photoprotein, luminometer” value was “Obelin and aequorin as well as their mutants were purified and activated with coelenterazine” on obelin (OL_wt); “Obelin and aequorin as well as their mutants were purified and activated with coelenterazine” on aequorin (AV_wt).
